Results from patent US12607637B2, “Super-resolution morphology-correlated detection of labile zinc” (University of Cincinnati, priority 2020, dated 2026).
Several values for one entry are separate records, joined by “and”; a condition that tells them apart may be missing. Identical values can stand only once.

Experiments:
HeLa cells [1] = assay: Photostability in cells under continuous laser stimulation; assay type: cell-based
Experimental: At the same time, because NapBu-BPEA's optical stability is an important factor in super-resolution imaging, a long-term continuous laser (300 s) stimulation of cells was carried out, capturing images every 20 s in order to monitor the photostability of NapBu-BPEA and MTDR in cells (FIG. 4(f), (g)). […] These characteristics enabled NapBu-BPEA to dynamically monitor cellular ultrastructures with long-term super-resolution imaging.

[2] = Zn^2+ fluorescence titration, Job's plot, detection limit, binding constant, metal ion selectivity and TPEN reversibility in HEPES/DMSO
Experimental: (§1) The stock solution of NapBu-BPEA was prepared with DMSO of HPLC pure grade to make the concentration as 10 mM, and frozen after packing at −20° C. The sample solutions were diluted to the final concentration as 10 μM with 3 mL HEPES buffer (50 mM, 100 mM KNO3, 10% DMSO, pH 7.2) in quartz cuvettes with 1 cm path lengths. The fluorescent spectra were recorded upon the excitation of 450 nm.
(§2) The Zn^2+ titration spectra were recorded by adding in aliquots Zn^2+ solution from 0 to 15 μM into the NapBu-BPEA solution (10 μM). The detection limit of NapBu-BPEA was determined by collecting the fluorescence spectra of NapBu-BPEA for 6 times to obtain the background noise (a). The probe's fluorescent sensing selectivity of NapBu-BPEA was recorded after adding metal cation (1000 eq K^+, Na^+, Ca^2+, Mg^2+; 1 eq Cd^2+, Ni^2+, Cr^3+, Pb^2+, Al^3+, Co^2+, Fe^2+, Fe^3+, Ba^2+, Mn^2+) to the NapBu-BPEA solution. The fluorescence quantum yields were determined by using Ru(bpy)3^2+ (Φ=0.04) in DMSO/HEPES (v:v, 1:9)(λex=450 nm) as the reference. To determine binding constant, various amounts of Zn(NO3)2 (0˜9 mM) were added to NapBu-BPEA solution buffered with DMSO/HEPES (50 mM, pH 7.21, 100 mM KNO3) containing 10 mM EGTA. The pH stability was measured by recording the fluorescence spectra of NapBu-BPEA solution in the presence of Zn^2+ at different pH adjusted with KOH and HCl.

[3] = Spectroscopic study: fluorescence quantum yield and pH stability in DMSO/HEPES; assay type: physicochemical; conditions: probe bound to Zn^2+, pH titration
Experimental: as §1, §2

HeLa cells [4] = assay: Cell viability determination via WST (LDH release) assay; assay type: cell-based; conditions: 20 μM, 24 h
Experimental: The suspension of HeLa cells diluted with 50 μL DMEM was plated into 96-well plate. The inoculated cells were pre-cultured overnight in 96-well plate and replaced with a new 50 μL DMEM. 50 μL DMEM containing different concentrations of NapBu-BPEA was added and cultured in CO2 incubator at 37° C. for 24 h. After 10 μL lysis buffer was added to the high contrast wells, 30 min was cultured in the CO2 incubator at 37° C. After 100 μL working solution was added to each well, it was cultured for 0.5 h under dark and room temperature. After 50 μL stop solution was added to each well, the absorbance of 490 nm was determined immediately by a microplate reader (Thermomax, Molecular Devices).

HeLa cells [5] = assay: SIM imaging of intracellular labile Zn^2+ on ZnPT loading and TPEN scavenging; assay type: cell-based
Experimental: In view of these promising results, a 1:2 mixture of ZnCl2 and pyrithione sodium salt, a cell-permeable Zn^2+ carrier (ZnPT) to transport exogenous Zn^2+ to cells, and a cell-permeable Zn^2+-chelating agent, TPEN, were used to evaluate the reversibility of fluorescence response to Zn^2+ in living cells according to methods described elsewhere. To determine the entry time of exogenous Zn^2+ into cells, NapBu-BPEA was incubated and an initial image was captured, after which 50 μM ZnPT (50 μM ZnCl2/100 μM pyrithione sodium salt) was used to replace the culture medium in dye-free and serum-free DMEM. […] The variance may be attributed to the difference in lipophilicity.
Next, NapBu-BPEA was investigated for its intracellular labile Zn^2+ imaging ability. Imaging experiments were performed in HeLa cells upon exogenous Zn^2+ loading via incubation with zinc pyrithione cmplex (ZnPT), a cell-permeable Zn^2+ carrier.
Intracellular labile Zn^2+ enhancement processes were tracked by recording SIM images every 2 min. […] While not desiring to be bound by theory, it is proposed that the butyl tail of NapBu-BPEA is responsible for the retained multiple organelle accumulation behavior of NapBu-BPEA upon Zn^2+ binding.

HeLa cells [6] = assay: SIM imaging of labile Zn^2+ during CCCP- or EBSS-induced autophagy; assay type: cell-based
Source text: The SIM images were acquired using a Nikon N-SIM system. The blue imaging channel for Hoechst 33258 with emission bandwidth at 420-495 nm upon excitation at 405 nm, the green imaging channel for NapBu-BPEA with emission bandwidth at 500-550 nm upon excitation at 488 nm, the red imaging channel for ER-Tracker Red, LysoTracker Red and DAPRed with emission bandwidth at 570-640 nm upon excitation at 561 nm, the magenta imaging channel for MitoTracker Deep Red with emission bandwidth at 660-735 nm upon excitation at 640 nm were utilized. The imaging data analysis and thermal map construction were performed via analysis with ImageJ.
The intracellular Zn^2+ level in autophagy was imaged in HeLa cells. Prior to CCCP (10 μM, 24 h) or EBSS treatment ([…]), the cells were stained with DAPRed (1 μM, 30 min). The cells were finally stained by NapBu-BPEA (10 μM, 1 h) before SIM imaging.

ATG13 KO HeLa cells = assay: SIM imaging of labile Zn^2+ after CCCP in autophagy-deficient cells; assay type: cell-based
Experimental: (§3) Wild-type, FIP200 and ATG13 KO HeLa cell lines were gifted from Dr. Jun-Lin Guan's lab (University of Cincinnati). Cells were cultured in DMEM supplemented 10% FBS and 100 U/mL penicillin-streptomycin (Gibco) in 5% CO2 incubator at 37° C.
(§4) Considering that ATG13 and FIP200 are essential proteins for autophagy, to further elucidate the relationship between autophagy and changes in level of Zn^2+ two stable knockout (KO) cell lines were obtained (ATG13 KO HeLa cells and FIP200 KO HeLa cells) via CRISPR/Cas9 gene editing technology.

FIP200 KO HeLa cells = assay: as above; assay type: cell-based
Experimental: as §3, §4

[7] = CCCP treatment, regions selected by morphology

SMILES: C[N+]1=C(/C=C/C=C/C=C2\N(Cc3ccc(CCl)cc3)c3ccccc3C2(C)C)C(C)(C)c2ccccc21.[Cl-] [MTDR, reference compound]
- fluorescence intensity remaining (HeLa cells [1]; after 120 s of laser stimulation): less than 30%

SMILES: CCCCN1C(=O)c2cccc3c(NCCN(Cc4ccccn4)Cc4ccccn4)ccc(c23)C1=O [NapBu-BPEA, 2,4-(bis(pyridin-2-ylmethyl)aminoethyl)amino-N-n-butyl-1,8-naphthalimide]
- limit of detection for Zn^2+ ([2]; 3 σ/slope method): 54.5 nM
- fluorescence selectivity against other metal ions ([2]; 1000 eq K+, Na+, Ca2+, Mg2+, 1 eq other cations, response only to Cd^2+): specific fluorescence selectivity for Zn^2+
- Kd ([2]; HEPES 50 mM, 100 mM KNO3, 10% DMSO, 10 mM EGTA, pH 7.21, read-out: dissociation constant (Kd) of the complex between Zn^2+ and NapBu-BPEA): 4.98 nM
- reversibility of fluorescence response on TPEN addition ([2]; Zn^2+ 10 μM then TPEN 10 μM, five on-off cycles): favorable reversible response to Zn^2+
- emission enhancement on Zn^2+ titration ([2]; at 540 nm, 10 μM probe): 3.6 fold
- pH range of stable fluorescence response [3]: 4-8 pH
- activity of lactate dehydrogenase released into the medium (HeLa cells [4]): less than 20%
- cell viability (HeLa cells [4]): exceeded 80%
- photobleaching (HeLa cells [1]; within 300 s of laser stimulation): negligible photobleaching
- time until fluorescence intensity is balanced/stable after exogenous Zn^2+ (HeLa cells [5]; 50 μM ZnPT, images every 2 min): 6 min and 4 min
- reversibility of intracellular response (HeLa cells [5]; 100 μM TPEN added to cells): respond reversibly to intracellular Zn^2+
- green fluorescence intensity in mitophagic versus non-autophagic cells (HeLa cells [6]; CCCP 10 μM, 24 h, probe 10 μM, 1 h): ~2.0 fold
- increase of Zn^2+ level (fluorescence intensity) in endoplasmic reticulum during autophagy (HeLa cells [6]; [7]): 1.55 fold
- increase of Zn^2+ level (fluorescence intensity) in mitochondria during autophagy (HeLa cells [6]; [7]): 1.89 fold
- fluorescence signal of CCCP-treated versus untreated cells (HeLa cells [6]; CCCP-induced mitophagy): improved significantly
- fluorescence intensity of EBSS-treated cells (HeLa cells [6]; EBSS starvation 24 h): decreased
- fluorescence intensity, CCCP-treated versus untreated (ATG13 KO HeLa cells): no significant change in fluorescence intensity
- fluorescence intensity, CCCP-treated versus untreated (FIP200 KO HeLa cells): no significant change in fluorescence intensity
